Starred links: 1 amine or outer side, 2 acyl side, 3 side chain; linkers in the order of their positions; H or OH if unused. Positions of bridges follow the written chain, without caps; N, C: chain ends. Non-standard residues stand in square brackets, D forms with d. Residues, ends and D or L forms follow the SMILES beside them. *: point of attachment. hTyr(3S-OH,4S-OH,3'-OSO3H) = N[C@H](C(=O)O)[C@H](O)[C@@H](O)c1ccc(O)c(OS(=O)(=O)O)c1; pTerphenylCO(4''-OnC5H11) = CCCCCOc1ccc(-c2ccc(-c3ccc(C(=O)*)cc3)cc2)cc1; Orn(4R-OH,5R-OH) = O=C([C@H](C[C@@H](O)[C@@H](O)N[*:3])N[*:1])[*:2]; hTyr(3S-OH,4S-OH) = N[C@H](C(=O)O)[C@H](O)[C@@H](O)c1ccc(O)cc1; Pro(3S-OH,4S-Me) = C[C@H]1CN[C@H](C(=O)O)[C@H]1O; X1 = CCCCCOc1ccc(-c2cc(-c3ccc(C(=O)*)cc3)no2)cc1; Gln(3R-OH) = NC(=O)C[C@@H](O)[C@H](N)C(=O)O; Hyp = O=C(O)[C@@H]1C[C@@H](O)CN1
Assays:
Homo sapiens [1] = species: Homo sapiens; experiment: Liver toxicity in human assessed as induction of drug-induced liver injury by measuring severity class index
Homo sapiens [2] = species: Homo sapiens; experiment: Liver toxicity in human assessed as induction of drug-induced liver injury by measuring verified drug-induced liver injury concern status
For DILI severity class in this document: key of the grades not given here.

OC[C@@H](O)[C@@H](O)[C@H](O)[C@H](O)CO [MANNITOL]
DILI_severity_class (Homo sapiens [1]): 0
DILI_Concern (Homo sapiens [2]): No-Dili-Concern

C=C1[C@H](CO)[C@@H](O)C[C@@H]1n1cnc2c(=O)[nH]c(N)nc21.O
DILI_severity_class (Homo sapiens [1]): 7
DILI_Concern (Homo sapiens [2]): Ambiguous-Dili-Concern

NS(=O)(=O)c1cc2c(cc1Cl)NCNS2(=O)=O [HYDROCHLOROTHIAZIDE]
DILI_severity_class (Homo sapiens [1]): 2
DILI_Concern (Homo sapiens [2]): Less-Dili-Concern

CC(C)Nc1cccnc1N1CCN(C(=O)c2cc3cc(NS(C)(=O)=O)ccc3[nH]2)CC1 [DELAVIRDINE]
DILI_severity_class (Homo sapiens [1]): 5
DILI_Concern (Homo sapiens [2]): Ambiguous-Dili-Concern

O=C1Nc2ccc(Cl)cc2[C@@](C#CC2CC2)(C(F)(F)F)O1 [EFAVIRENZ]
DILI_severity_class (Homo sapiens [1]): 7
DILI_Concern (Homo sapiens [2]): Most-Dili-Concern

O=C(OCC(O)CO)c1ccccc1Nc1ccnc2cc(Cl)ccc12 (stereo not given) [GLAFENINE]
DILI_severity_class (Homo sapiens [1]): 8
DILI_Concern (Homo sapiens [2]): Most-Dili-Concern

CCCCS(=O)(=O)N[C@@H](Cc1ccc(OCCCCC2CCNCC2)cc1)C(=O)O [TIROFIBAN]
DILI_severity_class (Homo sapiens [1]): 0
DILI_Concern (Homo sapiens [2]): No-Dili-Concern

NC(=O)NS(=O)(=O)c1ccc(N)cc1 [SULFACARBAMIDE]
DILI_severity_class (Homo sapiens [1]): 8
DILI_Concern (Homo sapiens [2]): Most-Dili-Concern

CN(C)CCOC(c1ccccc1)c1ccccc1.Cn1c(=O)c2[nH]c(Cl)nc2n(C)c1=O [DIMENHYDRINATE]
DILI_severity_class (Homo sapiens [1]): 0
DILI_Concern (Homo sapiens [2]): No-Dili-Concern

CC[C@H](C)C(=O)O[C@H]1C[C@H](O)C=C2C=C[C@H](C)[C@H](CC[C@@H](O)C[C@@H](O)CC(=O)O)[C@H]21 [PRAVASTATIN]
DILI_severity_class (Homo sapiens [1]): 3
DILI_Concern (Homo sapiens [2]): Less-Dili-Concern

CCCCCN(C)CCC(O)(P(=O)(O)O)P(=O)(O)O [IBANDRONIC ACID]
DILI_severity_class (Homo sapiens [1]): 0
DILI_Concern (Homo sapiens [2]): No-Dili-Concern

CN(C)Cc1ccc(CSCCN/C(=C\[N+](=O)[O-])NCc2ccc3c(c2)OCO3)o1 [NIPEROTIDINE]
DILI_severity_class (Homo sapiens [1]): 8
DILI_Concern (Homo sapiens [2]): Most-Dili-Concern

CO[C@H]1/C=C/O[C@@]2(C)Oc3c(C)c(O)c4c(O)c(c5c(nc6cc(C)ccn65)c4c3C2=O)NC(=O)/C(C)=C\C=C\[C@H](C)[C@H](O)[C@@H](C)[C@@H](O)[C@@H](C)[C@H](OC(C)=O)[C@@H]1C [RIFAXIMIN]
DILI_severity_class (Homo sapiens [1]): 7
DILI_Concern (Homo sapiens [2]): Ambiguous-Dili-Concern

CNC(=O)c1cc(Oc2ccc(NC(=O)Nc3ccc(Cl)c(C(F)(F)F)c3)cc2)ccn1 [SORAFENIB]
DILI_severity_class (Homo sapiens [1]): 8
DILI_Concern (Homo sapiens [2]): Most-Dili-Concern

CCCCCOc1ccc(-c2cc(-c3ccc(C(=O)N[C@H]4C[C@@H](O)[C@@H](O)NC(=O)[C@@H]5[C@@H](O)[C@@H](C)CN5C(=O)[C@H]([C@H](O)CC(N)=O)NC(=O)[C@H]([C@H](O)[C@@H](O)c5ccc(O)c(OS(=O)(=O)O)c5)NC(=O)[C@@H]5C[C@@H](O)CN5C(=O)[C@H]([C@@H](C)O)NC4=O)cc3)no2)cc1 [MICAFUNGIN] (X1-[Orn(4R-OH,5R-OH)]T[Hyp][hTyr(3S-OH,4S-OH,3'-OSO3H)][Gln(3R-OH)][Pro(3S-OH,4S-Me)]; lactam 1-C)
DILI_severity_class (Homo sapiens [1]): 7
DILI_Concern (Homo sapiens [2]): Most-Dili-Concern

Nc1nc2ccc(OC(F)(F)F)cc2s1 [RILUZOLE]
DILI_severity_class (Homo sapiens [1]): 8
DILI_Concern (Homo sapiens [2]): Most-Dili-Concern

Cc1ccc(S(=O)(=O)NC(=O)NN2CCCCCC2)cc1 [TOLAZAMIDE]
DILI_severity_class (Homo sapiens [1]): 2
DILI_Concern (Homo sapiens [2]): Less-Dili-Concern

CCCCC(=O)N(Cc1ccc(-c2ccccc2-c2nnn[nH]2)cc1)[C@H](C(=O)O)C(C)C
DILI_severity_class (Homo sapiens [1]): 3
DILI_Concern (Homo sapiens [2]): Less-Dili-Concern

CN1CCC(=C2c3ccccc3C=Cc3ccccc32)CC1 [CYPROHEPTADINE]
DILI_severity_class (Homo sapiens [1]): 7
DILI_Concern (Homo sapiens [2]): Less-Dili-Concern

O=S(=O)([O-])CCS.[Na+] [MESNA]
DILI_severity_class (Homo sapiens [1]): 3
DILI_Concern (Homo sapiens [2]): Ambiguous-Dili-Concern

CCN(CC)CC(=O)Nc1c(C)cccc1C [LIDOCAINE]
DILI_severity_class (Homo sapiens [1]): 0
DILI_Concern (Homo sapiens [2]): No-Dili-Concern

CCN1CC(CCN2CCOCC2)C(c2ccccc2)(c2ccccc2)C1=O (stereo not given) [DOXAPRAM]
DILI_severity_class (Homo sapiens [1]): 0
DILI_Concern (Homo sapiens [2]): No-Dili-Concern

NS(=O)(=O)c1cc2c(cc1Cl)N=CNS2(=O)=O [CHLOROTHIAZIDE]
DILI_severity_class (Homo sapiens [1]): 2
DILI_Concern (Homo sapiens [2]): Less-Dili-Concern

CC(C(=O)O)c1ccc(-c2ccccc2)c(F)c1 (stereo not given) [FLURBIPROFEN]
DILI_severity_class (Homo sapiens [1]): 3
DILI_Concern (Homo sapiens [2]): Ambiguous-Dili-Concern

COc1ccc2c3c1O[C@H]1C(=O)CC[C@@]4(O)[C@@H](C2)N(C)CC[C@]314 [OXYCODONE]
DILI_severity_class (Homo sapiens [1]): 0
DILI_Concern (Homo sapiens [2]): No-Dili-Concern

CN1c2c(oc(=O)n(-c3ccccn3)c2=O)-c2ccccc2S1(=O)=O [DROXICAM]
DILI_severity_class (Homo sapiens [1]): 8
DILI_Concern (Homo sapiens [2]): Most-Dili-Concern

C[C@@H](CN1CC(=O)NC(=O)C1)N1CC(=O)NC(=O)C1 [DEXRAZOXANE]
DILI_severity_class (Homo sapiens [1]): 4
DILI_Concern (Homo sapiens [2]): Ambiguous-Dili-Concern

O=C(O)COC(=O)Cc1ccccc1Nc1c(Cl)cccc1Cl [ACECLOFENAC]
DILI_severity_class (Homo sapiens [1]): 0
DILI_Concern (Homo sapiens [2]): Less-Dili-Concern

CCOc1ccc2ccccc2c1C(=O)N[C@@H]1C(=O)N2[C@@H]1SC(C)(C)[C@@H]2C(=O)O [NAFCILLIN]
DILI_severity_class (Homo sapiens [1]): 3
DILI_Concern (Homo sapiens [2]): Less-Dili-Concern

CC(C)C(=O)Oc1ccc(CO)cc1[C@H](CCN(C(C)C)C(C)C)c1ccccc1 [FESOTERODINE]
DILI_severity_class (Homo sapiens [1]): 0
DILI_Concern (Homo sapiens [2]): No-Dili-Concern

NCCCCCC(=O)O [AMINOCAPROIC ACID]
DILI_severity_class (Homo sapiens [1]): 0
DILI_Concern (Homo sapiens [2]): No-Dili-Concern

N=C(N)c1ccc(OCCCCCOc2ccc(C(=N)N)cc2)cc1 [PENTAMIDINE]
DILI_severity_class (Homo sapiens [1]): 3
DILI_Concern (Homo sapiens [2]): Less-Dili-Concern

CO/N=C(\C(=O)N[C@@H]1C(=O)N2C(C(=O)O)=CCS[C@H]12)c1csc(N)n1 [CEFTIZOXIME]
DILI_severity_class (Homo sapiens [1]): 4
DILI_Concern (Homo sapiens [2]): Ambiguous-Dili-Concern

Nc1ncnc2c1ncn2[C@@H]1O[C@H](CO)[C@@H](O)[C@H]1O [ADENOSINE]
DILI_severity_class (Homo sapiens [1]): 0
DILI_Concern (Homo sapiens [2]): No-Dili-Concern

CC(C)(C(=O)O)c1ccc(C(O)CCCN2CCC(C(O)(c3ccccc3)c3ccccc3)CC2)cc1 (stereo not given) [FEXOFENADINE]
DILI_severity_class (Homo sapiens [1]): 0
DILI_Concern (Homo sapiens [2]): No-Dili-Concern

CCCCCOc1ccc(-c2ccc(-c3ccc(C(=O)N[C@H]4C[C@@H](O)[C@@H](O)NC(=O)[C@@H]5[C@@H](O)[C@@H](C)CN5C(=O)[C@H]([C@@H](C)O)NC(=O)[C@H]([C@H](O)[C@@H](O)c5ccc(O)cc5)NC(=O)[C@@H]5C[C@@H](O)CN5C(=O)[C@H]([C@@H](C)O)NC4=O)cc3)cc2)cc1 [ANIDULAFUNGIN] ({pTerphenylCO(4''-OnC5H11)}-[Orn(4R-OH,5R-OH)]T[Hyp][hTyr(3S-OH,4S-OH)]T[Pro(3S-OH,4S-Me)]; lactam 1-C)
DILI_severity_class (Homo sapiens [1]): 7
DILI_Concern (Homo sapiens [2]): Ambiguous-Dili-Concern

COC(=O)[C@H](c1ccccc1)[C@H]1CCCCN1 [DEXMETHYLPHENIDATE]
DILI_severity_class (Homo sapiens [1]): 7
DILI_Concern (Homo sapiens [2]): Less-Dili-Concern

C[N+](C)(C)CC(=O)O [BETAINE]
DILI_severity_class (Homo sapiens [1]): 0
DILI_Concern (Homo sapiens [2]): No-Dili-Concern

CC1=C(C(=O)O)N2C(=O)[C@@H](NC(=O)[C@H](N)C3=CCC=CC3)[C@H]2SC1 [CEPHRADINE]
DILI_severity_class (Homo sapiens [1]): 4
DILI_Concern (Homo sapiens [2]): Ambiguous-Dili-Concern

CC(C(=O)O)c1cccc(C(=O)c2ccccc2)c1 (stereo not given) [KETOPROFEN]
DILI_severity_class (Homo sapiens [1]): 3
DILI_Concern (Homo sapiens [2]): Less-Dili-Concern

CC(C)(N)Cc1ccccc1 [PHENTERMINE]
DILI_severity_class (Homo sapiens [1]): 0
DILI_Concern (Homo sapiens [2]): Less-Dili-Concern

CC(C)C(=O)Nc1ccc([N+](=O)[O-])c(C(F)(F)F)c1 [FLUTAMIDE]
DILI_severity_class (Homo sapiens [1]): 8
DILI_Concern (Homo sapiens [2]): Most-Dili-Concern

Cl.N [AMMONIUM CHLORIDE]
DILI_severity_class (Homo sapiens [1]): 0
DILI_Concern (Homo sapiens [2]): No-Dili-Concern

GALLIUM NITRATE
DILI_severity_class (Homo sapiens [1]): 3
DILI_Concern (Homo sapiens [2]): Ambiguous-Dili-Concern

CCOC(=O)C1=C[C@@H](OC(CC)CC)[C@H](NC(C)=O)[C@@H](N)C1 [OSELTAMIVIR]
DILI_severity_class (Homo sapiens [1]): 3
DILI_Concern (Homo sapiens [2]): Ambiguous-Dili-Concern

O=C(CCCCCCC(=O)Nc1ccccc1)NO [VORINOSTAT]
DILI_severity_class (Homo sapiens [1]): 0
DILI_Concern (Homo sapiens [2]): No-Dili-Concern

COc1ccc2c(c1)c(CC(=O)O)c(C)n2C(=O)c1ccc(Cl)cc1 [INDOMETHACIN]
DILI_severity_class (Homo sapiens [1]): 8
DILI_Concern (Homo sapiens [2]): Most-Dili-Concern

CCC1(C)CC(=O)NC1=O (stereo not given) [ETHOSUXIMIDE]
DILI_severity_class (Homo sapiens [1]): 3
DILI_Concern (Homo sapiens [2]): Ambiguous-Dili-Concern

O=C(NCC1CCCCN1)c1cc(OCC(F)(F)F)ccc1OCC(F)(F)F (stereo not given) [FLECAINIDE]
DILI_severity_class (Homo sapiens [1]): 7
DILI_Concern (Homo sapiens [2]): Less-Dili-Concern

CSCC[C@H](NC(=O)[C@H](Cc1c[nH]c2ccccc12)NC(=O)CCNC(=O)OC(C)(C)C)C(=O)N[C@@H](CC(=O)O)C(=O)N[C@@H](Cc1ccccc1)C(N)=O [PENTAGASTRIN]
DILI_severity_class (Homo sapiens [1]): 0
DILI_Concern (Homo sapiens [2]): No-Dili-Concern
